# ChEMBL document CHEMBL5154882, “Discovery of 4-Hydroxyquinazoline Derivatives as Small Molecular BET/PARP1 Inhibitors That Induce Defective Homologous Recombination and Lead to Synthetic Lethality for Triple-Negative Breast Cancer Therapy” (J Med Chem, 2022)
# Activity calls are given as the source filed them. The rule behind the calls is not given here.
# Experiments:
# MDA-MB-468 [1] = assay: Induction of apoptosis in human MDA-MB-468 cells assessed as late apoptotic cells at 5 uM incubated for 72 hrs by annexin V/propidium iodide staining-based flow cytometry analysis (reference value: 1.34%); assay type: functional
# [2] = biological target: T1, Poly [ADP-ribose] polymerase 1 (Homo sapiens, UniProt P09874); assay: Inhibition of PARP1 (unknown origin) at 1 uM relative to control
# T1 sequence (P09874 whole entry): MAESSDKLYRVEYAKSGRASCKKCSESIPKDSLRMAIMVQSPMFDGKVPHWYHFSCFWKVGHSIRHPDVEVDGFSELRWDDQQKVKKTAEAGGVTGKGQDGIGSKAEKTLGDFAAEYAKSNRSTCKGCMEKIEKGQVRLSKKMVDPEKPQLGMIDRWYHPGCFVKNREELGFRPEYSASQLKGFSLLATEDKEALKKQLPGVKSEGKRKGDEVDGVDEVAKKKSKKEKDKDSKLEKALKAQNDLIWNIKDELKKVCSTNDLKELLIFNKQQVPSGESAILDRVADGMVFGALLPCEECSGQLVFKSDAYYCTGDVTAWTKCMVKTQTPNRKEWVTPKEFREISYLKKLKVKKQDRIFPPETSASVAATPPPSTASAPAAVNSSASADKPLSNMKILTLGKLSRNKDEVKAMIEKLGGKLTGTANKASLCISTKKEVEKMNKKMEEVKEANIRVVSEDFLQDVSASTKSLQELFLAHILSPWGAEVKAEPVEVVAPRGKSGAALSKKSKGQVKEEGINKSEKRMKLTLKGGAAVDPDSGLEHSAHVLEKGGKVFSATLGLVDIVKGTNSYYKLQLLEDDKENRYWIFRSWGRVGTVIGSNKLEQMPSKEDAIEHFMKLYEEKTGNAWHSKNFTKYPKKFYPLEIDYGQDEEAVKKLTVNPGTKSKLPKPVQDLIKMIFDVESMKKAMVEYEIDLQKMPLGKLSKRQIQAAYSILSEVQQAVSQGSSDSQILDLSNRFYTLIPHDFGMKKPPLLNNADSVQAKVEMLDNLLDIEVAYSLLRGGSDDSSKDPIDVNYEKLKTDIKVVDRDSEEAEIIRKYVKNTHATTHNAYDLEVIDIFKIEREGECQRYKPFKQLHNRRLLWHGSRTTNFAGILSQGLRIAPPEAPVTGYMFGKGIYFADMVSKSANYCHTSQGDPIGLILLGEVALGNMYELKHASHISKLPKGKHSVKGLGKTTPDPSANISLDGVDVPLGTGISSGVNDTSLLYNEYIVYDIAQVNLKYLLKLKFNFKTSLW
# [3] = Toxicity in BALB/c nude mouse xenografted with human MDA-MB-468 cells assessed as morphological changes in spleen at 40 to 80 mg/kg, ig administered daily for 16 days measured every 3 days by hematoxyin-eosin staining based analysis; assay type: organism-based; details: in vivo, po, 384 h, dose 40-80 mg/kg, time 16 day
# MDA-MB-468 [4] = assay: Cell cycle arrest in human MDA-MB-468 cells assessed as accumulation at G2/M phase at 10 uM incubated for 72 hrs by propidium iodide staining-based flow cytometry analysis (reference value: 16.1%); assay type: functional
# MDA-MB-231 [5] = assay: Antitumor activity against human MDA-MB-231 cells xenografted in BALB/c nude mouse assessed as tumor growth inhibition at 40 to 80 mg/kg incubated for 30 to 40 mins by Ki-67 staining based immunohistochemical analysis; assay type: functional, organism-based; details: dose 40-80 mg/kg, time 30-40 min
# MDA-MB-468 [6] = assay: Induction of apoptosis in human MDA-MB-468 cells assessed as late apoptotic cells at 10 uM incubated for 72 hrs by annexin V/propidium iodide staining-based flow cytometry analysis (reference value: 1.34%); assay type: functional
# MDA-MB-468 [7] = assay: Inhibition of homologous recombinant repair in human MDA-MB-468 cells assessed as down-regulation of Rad51 expression at 5 to 20 uM by Western blot analysis; assay type: functional, cell-based; details: dose 5-20 µM, DDE = dose-dependent effect
# MDA-MB-468 [8] = assay: Downregulation of PARP1 expression level in human MDA-MB-468 cells by Western blot analysis; assay type: functional, cell-based; details: dose 5-20 µM, DDE = dose-dependent effect
# MDA-MB-468 [9] = assay: Inhibition of clone formation in human MDA-MB-468 cells measured after 10 days by crystal violet staining based analysis; assay type: functional, cell-based; details: dose 5-20 µM, time 10.0 day, DDE = dose-dependent effect
# [10] = Oral bioavailability in Sprague-Dawley rat at 10 mg/kg; assay type: ADME, organism-based; details: in vivo
# [11] = Toxicity in BALB/c nude mouse xenografted with human MDA-MB-468 cells assessed as morphological changes in liver at 40 to 80 mg/kg, ig administered daily for 16 days measured every 3 days by hematoxyin-eosin staining based analysis; assay type: organism-based; details: in vivo, po, 384 h, dose 40-80 mg/kg, time 16 day
# MDA-MB-231 [12] = assay: Induction of DNA damage in human MDA-MB-231 cells assessed as increase in tail DNA measured at 5 to 20 uM after 3 days by comet assay; assay type: functional, cell-based; details: dose 5-20 µM, time 3.0 day
# [13] = AUC (0 to t) in Sprague-Dawley rat at 1 mg/kg, iv; assay type: ADME, organism-based; design: dose 1 mg/kg, route iv; details: in vivo
# [14] = Toxicity in BALB/c nude mouse xenografted with human MDA-MB-468 cells assessed as change in body weight at 40 to 80 mg/kg, ig administered daily for 16 days measured every 3 days; assay type: organism-based; details: in vivo, po, 384 h, dose 40-80 mg/kg, time 16 day
# [15] = Toxicity in BALB/c nude mouse xenografted with human MDA-MB-468 cells assessed as morphological changes in lung at 80 mg/kg, ig administered daily for 16 days measured every 3 days by hematoxyin-eosin staining based analysis; assay type: organism-based; details: in vivo, po, 384 h, time 16 day
# [16] = Cmax in Sprague-Dawley rat at 10 mg/kg, po; assay type: ADME, organism-based; design: dose 10 mg/kg, route po; details: in vivo
# MDA-MB-468 [17] = assay: Induction of apoptosis in human MDA-MB-468 cells assessed as early apoptotic cells at 5 uM incubated for 72 hrs by annexin V/propidium iodide staining-based flow cytometry analysis (reference value: 4.07%); assay type: functional
# [18] = Half life in Sprague-Dawley rat at 10 mg/kg, po; assay type: ADME, organism-based; details: in vivo
# MDA-MB-468 [19] = assay: Cell cycle arrest in human MDA-MB-468 cells assessed as accumulation at S phase at 10 uM incubated for 72 hrs by propidium iodide staining-based flow cytometry analysis (reference value: 21.1%); assay type: functional
# [20] = biological target: Bromodomain-containing protein 4 (Homo sapiens, UniProt O60885); assay: Binding affinity to BRD4 in human MDA-MB-468 cells assessed as increase in thermal stability at 5 uM by cellular thermal shift assay; assay type: cell-based
# [21] = biological target: T1, Poly [ADP-ribose] polymerase 1
# [22] = Toxicity in BALB/c nude mouse xenografted with human MDA-MB-468 cells assessed as death at 40 to 80 mg/kg, ig administered daily for 16 days measured every 3 days; assay type: organism-based; details: in vivo, po, 384 h, dose 40-80 mg/kg, time 16 day
# [23] = Toxicity in BALB/c nude mouse xenografted with human MDA-MB-468 cells assessed as morphological changes in kidney at 80 mg/kg, ig administered daily for 16 days measured every 3 days by hematoxyin-eosin staining based analysis; assay type: organism-based; details: in vivo, po, 384 h, time 16 day
# MDA-MB-231 [24] = assay: Antiproliferative activity against human MDA-MB-231 cells assessed as reduction in cell viability incubated for 72 hrs by MTT assay; assay type: functional, cell-based; details: MDA-MB-231, 72 h
# MDA-MB-231 [25] = assay: Antitumor activity against human MDA-MB-231 cells xenografted in BALB/c nude mouse assessed as downregulation of Rad51 at 80 mg/kg by Western blot analysis; assay type: functional, organism-based
# MDA-MB-231 [26] = assay: Antitumor activity against human MDA-MB-231 cells xenografted in BALB/c nude mouse assessed as downregulation of c-Myc at 80 mg/kg by Western blot analysis; assay type: functional, organism-based
# [27] = Apparent volume of distribution in Sprague-Dawley rat at 1 mg/kg, iv; assay type: ADME, organism-based; details: in vivo
# MDA-MB-231 [28] = assay: Antitumor activity against human MDA-MB-231 cells xenografted in BALB/c nude mouse assessed as downregulation of […] downstream protein at 40 mg/kg by Western blot analysis; assay type: functional, organism-based
# [29] = biological target: T1, Poly [ADP-ribose] polymerase 1; assay: Binding affinity to PARP1 in human MDA-MB-468 cells assessed as increase in thermal stability at 5 uM by cellular thermal shift assay; assay type: cell-based
# [30] = Toxicity in BALB/c nude mouse xenografted with human MDA-MB-468 cells assessed as morphological changes in spleen at 80 mg/kg, ig administered daily for 16 days measured every 3 days by hematoxyin-eosin staining based analysis; assay type: organism-based; details: in vivo, po, 384 h, time 16 day
# MDA-MB-468 [31] = assay: Cell cycle arrest in human MDA-MB-468 cells assessed as accumulation at G2/M phase at 20 uM incubated for 72 hrs by propidium iodide staining-based flow cytometry analysis (reference value: 16.1%); assay type: functional
# MDA-MB-468 [32] = assay: Downregulation of PAR expression level in human MDA-MB-468 cells by Western blot analysis; assay type: functional, cell-based; details: dose 5-20 µM, DDE = dose-dependent effect
# MDA-MB-231 [33] = assay: Antitumor activity against human MDA-MB-231 cells xenografted in BALB/c nude mouse assessed as reduction in Rad51 expression at 40 to 80 mg/kg incubated for 30 to 40 mins by immunohistochemical analysis; assay type: functional, organism-based; details: dose 40-80 mg/kg, time 30-40 min
# MDA-MB-468 [34] = assay: Inhibition of homologous recombinant repair in human MDA-MB-468 cells assessed as down-regulation of CtlP expression at 5 to 20 uM in by Western blot analysis; assay type: functional, cell-based; details: dose 5-20 µM
# MDA-MB-231 [35] = assay: Antitumor activity against human MDA-MB-231 cells xenografted in BALB/c nude mouse assessed as downregulation of BRD4 downstream protein at 40 mg/kg by Western blot analysis; assay type: functional, organism-based
smiles,measurement,setting,value
COc1cc(OC)c2c(=O)[nH]c(-c3cccc(Cc4n[nH]c(=O)c5ccccc45)c3)nc2c1,Activity,MDA-MB-468 [1],6.08%
same,inhibition,[2],79.2%
same,Activity,[3],Non-Toxic
same,Activity,MDA-MB-468 [4],14.5%
same,Activity,MDA-MB-231 [5],Active
same,Activity,MDA-MB-468 [6],4.94%
same,inhibition,MDA-MB-468 [7],Dde
same,Activity,MDA-MB-468 [8],Dde
same,inhibition,MDA-MB-468 [9],Dde
same,bioavailability,[10],23.8%
same,Activity,[11],Non-Toxic
same,Activity,MDA-MB-231 [12],Active
same,AUC(0-t),[13],629 ng·h/mL
same,Activity,[14],Non-Toxic
same,Activity,[15],Non-Toxic
same,Cmax,[16],242 ng/mL
same,Activity,MDA-MB-468 [17],21.47%
same,half-life,[18],3.33 h
same,Activity,MDA-MB-468 [19],22.8%
same,Activity,[20],Active
same,IC50,[21],0.197 µM
same,Activity,[22],Non-Toxic
same,Activity,[23],Non-Toxic
same,IC50,MDA-MB-231 [24],6.61 µM
same,Activity,MDA-MB-231 [25],Active
same,Activity,MDA-MB-231 [26],Active
same,Vz,[27],21.1 L/kg
same,Activity,MDA-MB-231 [28],Active
same,Activity,[29],Active
same,Activity,[30],Non-Toxic
same,Activity,MDA-MB-468 [31],14%
same,Activity,MDA-MB-468 [32],Dde
same,Activity,MDA-MB-231 [33],Active
same,inhibition,MDA-MB-468 [34],Active
same,Activity,MDA-MB-231 [35],Active
